Test results: patent US20250092030A1, “ENHANCERS OF PARTICULATE GUANYLYL CYCLASE RECEPTOR A” (Mayo Foundation for Medical Education and Research, priority 2023, published 2025)
pEC50: −log10 of the molar value. Values joined by “and” are separate entries in the source; they are usually repeats but may differ in a detail not shown here. Equal entries are not always repeated.

What follows are molecules tested against T1, particulate guanylyl cyclase receptor A (pGC-A) (Homo sapiens, UniProt P16066) (assay: cGMP production by HTRF in HEK293 cells overexpressing pGC-A, with ANP). Conditions: HEK293, HEK293 cells overexpressing pGC-A; cGMP normalized to maximal amount produced by an EC80 concentration of ANP; read-out: Max efficacy.
T1 construct: expressed in transfected cells; host or cells: HEK293
T1 sequence (P16066 33-1061): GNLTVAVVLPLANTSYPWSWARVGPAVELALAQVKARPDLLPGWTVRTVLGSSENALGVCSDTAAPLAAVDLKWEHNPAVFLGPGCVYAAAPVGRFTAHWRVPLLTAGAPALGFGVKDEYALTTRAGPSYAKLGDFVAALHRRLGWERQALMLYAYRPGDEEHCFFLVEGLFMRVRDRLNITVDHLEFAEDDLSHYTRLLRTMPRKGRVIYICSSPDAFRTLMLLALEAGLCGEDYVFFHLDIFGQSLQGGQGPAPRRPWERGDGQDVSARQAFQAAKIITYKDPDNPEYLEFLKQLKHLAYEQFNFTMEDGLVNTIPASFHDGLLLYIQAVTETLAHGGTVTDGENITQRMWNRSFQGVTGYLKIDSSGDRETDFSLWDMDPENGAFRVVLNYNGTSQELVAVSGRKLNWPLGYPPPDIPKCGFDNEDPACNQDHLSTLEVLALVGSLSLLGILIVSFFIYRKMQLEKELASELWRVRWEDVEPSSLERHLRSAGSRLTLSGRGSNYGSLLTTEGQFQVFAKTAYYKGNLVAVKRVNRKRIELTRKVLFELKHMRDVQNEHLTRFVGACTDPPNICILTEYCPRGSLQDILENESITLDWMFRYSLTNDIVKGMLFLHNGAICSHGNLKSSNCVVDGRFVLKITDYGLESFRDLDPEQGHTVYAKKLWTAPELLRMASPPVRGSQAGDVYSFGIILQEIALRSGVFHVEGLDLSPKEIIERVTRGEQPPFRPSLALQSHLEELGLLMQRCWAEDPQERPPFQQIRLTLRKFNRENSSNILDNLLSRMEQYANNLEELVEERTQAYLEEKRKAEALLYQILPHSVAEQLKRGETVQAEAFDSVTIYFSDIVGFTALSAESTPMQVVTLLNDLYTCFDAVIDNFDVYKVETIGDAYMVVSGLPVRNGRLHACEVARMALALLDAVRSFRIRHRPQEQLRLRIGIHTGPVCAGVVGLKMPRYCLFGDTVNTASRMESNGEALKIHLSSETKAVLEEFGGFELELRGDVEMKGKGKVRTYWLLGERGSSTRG
T1 sequence (P01160 124-151 partner limits assumed): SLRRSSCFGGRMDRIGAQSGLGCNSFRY
Type: cell-based
From the text: Assay: Generally, the assay monitors the production of cGMP, the second messenger generated by pGC-A, by Time-Resolved Florescence (HTRF) in HEK293 cells overexpressing the pGC-A. pGC-A suspension cells were stimulated in the presence of the test compound and an EC20 concentration of ANP. The quantity of cGMP was detected by competitive immunoassay using Eu^3+ cryptate-labeled anti-cGMP and d2-labeled cGMP and normalized to maximal amount produced by an EC80 concentration of ANP. Compound EC50 values were determined in the primary assay, in the presence or absence of ANP, to determine mode of action as positive modulators and tested for selectivity in the same assay platform but in HEK cells overexpressing the particulate guanylyl cyclase B receptor (pGC-B), of which CNP is the endogenous ligand.
Assay details: 20 nL of 10 μM test compound in DMSO was added to columns 5-48 of 1536 well white high base screening plates (Corning, New York, NY) cells using 550 ECHO acoustic dispenser (Labcyte, San Jose, CA). Alpha-atrial natriuretic peptide (ANP) (Phoenix Pharmaceutics) was prepared as stock aliquots at 5 μM in PBS with 0.1% BSA. An approximate […] concentration of ANP ([…]) in assay buffer (HBSS containing 5 mM HEPES and 0.05% BSA) was added to columns 3-48 at a volume of 1 μL. Assay buffer only was added to column 1 and assay buffer containing a saturating concentration of ANP (5 nM) was added to column 2. HEK293 cells overexpressing GC-A were resuspended in assay media (OptimMem media containing 2% Heat-inactivated Fetal bovine serum and L-glutamine) at a density of 6×10^5 cells/mL and 2 μL were plated in screening plates (1200 cells/well) in suspension using a Bioraptr 2. Plates were spun at 1000 rpm for 1 min and incubated for 30 min at room temperature. 1.5 μL d2-labeled cGMP followed by 1.5 μL Eu^3+ cryptate-labeled anti-cGMP cGMP detection kit (CiBio; #62GM2PEC) prepared according to manufacturer's protocol were added to all wells using a Bioraptr 2 and TR-FRET signal was detected on an EnVision detector (PerkinElmer). Wells treated with 0.3% DMSO only serve as blank controls (column 1); wells treated with 0.3% DMSO and 5 nM ANP (columns 2) serve as positive controls and wells treated with 0.3% DMSO and […] ANP (columns 3-4) serve as negative controls.

Emax	Compound
97%	CN(C)CCN1CCCC(C(=O)Nc2nc3c(Cl)cccc3s2)C1 (stereo not drawn) [compound 225]
94%	CC1C(N2CCCC(C(=O)Nc3nc4c(Cl)cc(F)cc4s3)C2)CN1C (stereo not drawn) [compound 130]

Same assay, conditions: HEK293 cells overexpressing pGC-A; cGMP normalized to maximal amount produced by an EC80 concentration of ANP

Max efficacy	Compound
118% and 94%	CN1CCCC1CN1CCCC(C(=O)Nc2nc3c(F)cc(F)cc3s2)C1 (stereo not drawn) [compound 072]

Same assay, conditions: HEK293 cells overexpressing pGC-A; cGMP normalized to maximal amount produced by an EC80 concentration of ANP; read-out: Max efficacy

Compound	Emax
O=C(Nc1nc2c(F)cc(F)cc2s1)C1CCC2CCC1N2 (stereo not drawn) [compound 049]	98%

Same assay, conditions: HEK293 cells overexpressing pGC-A; test compound plus EC20 concentration of ANP; cGMP by HTRF

pEC50	Compound
< 5.30	COCc1cc(F)c2nc(NC(=O)C3CCCNC3)sc2c1 (stereo not drawn) [compound 030]
< 5.30	O=C(Nc1nc2c(F)cc(F)cc2s1)C1CNCCO1 (stereo not drawn) [compound 047]
< 5.30	COc1ccc(-c2csc(NC(=O)C3CCCN(CCN(C)C)C3)n2)cc1 (stereo not drawn) [compound 156]
< 5.30	O=C(O)CN1CCC(N2CCCC(C(=O)Nc3nc4c(F)cc(F)cc4s3)C2)C1 (stereo not drawn) [compound 095]
< 5.00	COc1ccc2nc(NC(=O)C3CCCN(CCN(C)C)C3)sc2c1 (stereo not drawn) [compound 018]
< 5.30	CN(C)CCN1CCCC(C(=O)Nc2nc(-c3cccc(Cl)c3)cs2)C1 (stereo not drawn) [compound 149]
< 5.00	COc1ccc2sc(NC(=O)C3CCCN(CCN(C)C)C3)nc2c1 (stereo not drawn) [compound 013]
< 5.30	O=C(Nc1nc2c(F)cc(F)cc2c(=O)[nH]1)C1CCCNC1 (stereo not drawn) [compound 183]
< 5.30	O=C(Nc1nc2c(Cl)cc(F)cc2s1)C1CCCN(c2ccnc3ccccc23)C1 (stereo not drawn) [compound 114]
5.72	N[C@H]1CCC[C@H](C(=O)Nc2nc3c(F)cc(F)cc3s2)C1 [210C]
< 5.30	O=C(Nc1nc2c(F)cc(F)cc2s1)C1CCCN(c2ccncc2Br)C1 (stereo not drawn) [compound 113]
< 5.00	CN(C)CCN1CCCC(NC(=O)c2nc3c(F)cc(F)cc3s2)C1 (stereo not drawn) [compound 217]
< 5.00	COc1ccc(C(=O)Nc2nc3c(F)cc(F)cc3s2)cc1 [compound 205]
< 5.30	O=C(Nc1nc2c(F)cc(F)cc2s1)C1CCCN(C(=O)N2CCCC2)C1 (stereo not drawn) [compound 275]
< 5.30	CN(C)CCN1CCOC(C(=O)Nc2nc3c(F)cc(F)cc3s2)C1 (stereo not drawn) [compound 046]
< 5.30	CN(C)CCN[C@@H]1CCC[C@H](C(=O)Nc2nc3c(F)cc(F)cc3s2)C1 [compound 207]
< 5.30	CN(C)CCN1CCCC(C(=O)Nc2nc(-c3ccccc3Cl)cs2)C1 (stereo not drawn) [compound 148]
< 5.00	CN(C)CCN1CCCC(C(=O)Nc2nc3c(Cc4ccccc4)cccc3s2)C1 (stereo not drawn) [compound 004]
< 5.30	CN(C)CCC1CCN(c2nc3c(F)cc(F)cc3s2)C(=O)C1 (stereo not drawn) [compound 220]
< 5.30	CN(C)CCN[C@H]1CCC[C@H](C(=O)Nc2nc3c(F)cc(F)cc3s2)C1 [compound 209]
5.92 and 6.00	CN1CCCC1CN1CCCC(C(=O)Nc2nc3c(F)cc(F)cc3s2)C1 (stereo not drawn) [compound 072]
< 5.00	CN(C)CCN1CCCC(C(=O)Nc2nc3cc(F)ccc3s2)C1 (stereo not drawn) [compound 010]
< 5.00	CN(C)CCN1CCCC(C(=O)Nc2nc3ccccc3s2)C1 (stereo not drawn) [compound 216]
6.44	CN(C)CCN1CCCC(C(=O)Nc2nc3c(Cl)cccc3s2)C1 (stereo not drawn) [compound 225]
6.92	CC1C(N2CCCC(C(=O)Nc3nc4c(Cl)cc(F)cc4s3)C2)CN1C (stereo not drawn) [compound 130]

Compound	pEC50
O=C(Nc1nc2c(F)cc(F)cc2s1)C1CCC2CCC1N2 (stereo not drawn) [compound 049]	6.52
